Laboratory results from US20060045953A1 (priority 2004, published 2006).

The compounds below were run against T1, hT1R1/hT1R3 umami receptor (Homo sapiens, UniProt Q7RTX0+Q7RTX1) (assay: In vitro hT1R1/hT1R3 umami taste receptor activation assay (FLIPR, dose response)). Details: Table A, Umami Amides; read-out: Umami EC50.
T1 construct: expressed in transfected cells; host or cells: HEK293 derivative stably expressing Gα15, clone I-17, expression induced with mifepristone
T1 sequence (Q7RTX1 21-841): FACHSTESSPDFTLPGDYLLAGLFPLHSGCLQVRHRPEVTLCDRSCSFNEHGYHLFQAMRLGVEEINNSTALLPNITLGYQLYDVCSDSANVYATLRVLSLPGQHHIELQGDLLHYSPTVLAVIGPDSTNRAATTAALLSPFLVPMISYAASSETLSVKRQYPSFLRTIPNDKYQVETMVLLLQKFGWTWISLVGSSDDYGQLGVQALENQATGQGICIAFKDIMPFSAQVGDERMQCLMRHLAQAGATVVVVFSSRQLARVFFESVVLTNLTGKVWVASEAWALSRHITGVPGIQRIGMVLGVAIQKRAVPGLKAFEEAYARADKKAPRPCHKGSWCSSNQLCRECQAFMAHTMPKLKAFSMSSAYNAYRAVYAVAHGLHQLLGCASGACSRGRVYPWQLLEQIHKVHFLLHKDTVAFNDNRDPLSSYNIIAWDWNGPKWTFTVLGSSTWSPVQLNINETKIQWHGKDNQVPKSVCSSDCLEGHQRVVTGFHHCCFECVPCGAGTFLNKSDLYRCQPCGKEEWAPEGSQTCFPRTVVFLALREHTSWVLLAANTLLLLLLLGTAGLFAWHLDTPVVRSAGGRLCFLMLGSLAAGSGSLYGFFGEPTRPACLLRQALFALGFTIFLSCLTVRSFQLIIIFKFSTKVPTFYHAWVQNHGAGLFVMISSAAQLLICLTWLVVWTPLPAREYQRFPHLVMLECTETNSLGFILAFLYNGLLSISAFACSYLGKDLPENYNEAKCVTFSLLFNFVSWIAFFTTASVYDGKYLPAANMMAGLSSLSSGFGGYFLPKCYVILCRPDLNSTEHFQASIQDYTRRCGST
T1 sequence (Q7RTX0 21-852): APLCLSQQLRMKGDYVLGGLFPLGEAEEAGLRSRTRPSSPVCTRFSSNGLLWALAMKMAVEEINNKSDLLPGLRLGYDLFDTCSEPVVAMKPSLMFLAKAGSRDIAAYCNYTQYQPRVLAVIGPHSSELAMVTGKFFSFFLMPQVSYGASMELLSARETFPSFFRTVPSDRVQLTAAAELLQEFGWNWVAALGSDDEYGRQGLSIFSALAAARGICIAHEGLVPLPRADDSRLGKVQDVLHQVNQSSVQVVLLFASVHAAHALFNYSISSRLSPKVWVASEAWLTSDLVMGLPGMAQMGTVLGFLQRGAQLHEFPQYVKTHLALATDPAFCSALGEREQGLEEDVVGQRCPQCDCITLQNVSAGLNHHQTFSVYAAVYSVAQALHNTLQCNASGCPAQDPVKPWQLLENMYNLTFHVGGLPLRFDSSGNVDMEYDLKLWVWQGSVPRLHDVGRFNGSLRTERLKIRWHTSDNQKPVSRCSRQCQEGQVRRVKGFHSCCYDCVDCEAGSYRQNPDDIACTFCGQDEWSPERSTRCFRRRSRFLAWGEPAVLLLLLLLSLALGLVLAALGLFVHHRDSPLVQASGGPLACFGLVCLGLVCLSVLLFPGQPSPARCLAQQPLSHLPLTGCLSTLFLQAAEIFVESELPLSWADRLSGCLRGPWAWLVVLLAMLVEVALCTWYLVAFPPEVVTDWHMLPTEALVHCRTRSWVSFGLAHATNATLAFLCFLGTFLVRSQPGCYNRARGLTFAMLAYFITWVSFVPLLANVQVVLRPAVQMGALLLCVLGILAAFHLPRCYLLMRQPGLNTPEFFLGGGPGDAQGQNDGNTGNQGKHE
Format: cell-based
`COc1cccc(C(=O)N[C@@H]2CCCc3ccccc32)c1N` [Example A108, (R)-2-amino-3-methoxy-N-(1,2,3,4-tetrahydronaplithalen-1-yl)benzamide] showed an EC50 of 90 nM.
With `COc1ccc(C(=O)N[C@H]2CCCc3ccccc32)cc1C` [Example A109, (S)-4-methoxy-3-methyl-N-(1,2,3,4-tetrahydronaphthalen-1-yl)benzamide] the EC50 was 80 nM.
In the case of `COc1ccc2c(c1)CCC2NC(=O)c1ccc(O)c(C)c1` (stereo not shown) [Example A110, 4-hydroxy-N-(5-methoxy-2,3-dihydro-1H-inden-1-yl)-3-methylbenzamide], the EC50 is reported as 300 nM.
`Cc1cc(C(=O)N[C@H]2CCc3ccccc32)ccc1O` [Example A111, (S)-N-(2,3-dihydro-1H-inden-1-yl)-4-hydroxy-3-methylbenzamide] showed an EC50 of 660 nM.
`Cc1ccc(C(=O)N[C@H]2CCc3ccccc32)cc1C` [Example A112, (S)-N-(2,3-dihydro-1H-inden-1-yl) 3,4-dimethylbenzamide] gave an EC50 of 790 nM.
`CCOc1ccc(C(=O)N[C@H]2CCc3ccccc32)cc1C` [Example A113, (S)-N-(2,3-dihydro-1H-inden-1-yl)-4-ethoxy-3-methylbenzamide] was tested, and the EC50 was 850 nM.
Compound `COc1cc(C(=O)N[C@@H]2CCCc3ccccc32)nc(OC)n1` [Example A114, (R)-2,6-dimethoxy-N-(1,2,3,4-tetrahydronaphthalen-1-yl)pyrimidine 4-carboxamide] has an EC50 of 2350 nM.
With `O=C(N[C@H]1CCOc2ccccc21)c1cccc(Cl)c1O` [Example A115, (s)-3-chloro-N-(chroman-4-yl)-2-hydroxybenzamide] the EC50 was 5000 nM.
For `CCCC(CCC)NC(=O)c1cccc(CC)c1` [Example A116, 3-ethyl-N-(heptan-4-yl)benzamide], the EC50 was 10 nM.
`CCCC(CCC)NC(=O)c1cc(COC)c(CC)o1` [Example A117, 5-ethyl-N-(heptan-4-yl)-4-(methoxymethyl)furan-2-carboxamide] showed an EC50 of 30 nM.
`CCCC(CCC)NC(=O)c1cccc(SC)c1` [Example A118, N-(heptan-4-yl)-3-(methylthio)benzamide] showed an EC50 of 30 nM.
`CCCC(CCC)NC(=O)c1ccc2c(c1)NCCC2` [Example A119, N-(heptan-4-yl)-1,2,3,4-tetrahydroguinoline-7-carboxamide] was tested, and the EC50 was 50 nM.
With `CCCC(CCC)NC(=O)c1ccc(OC)c([N+](=O)[O-])c1` [Example A120, N-(heptan-4-yl)-4-methoxy-3-nitrobenzamide] the EC50 was 80 nM.
`CCCC(CCC)NC(=O)c1cc2c(s1)CCC2` [Example A121, N-(heptan-4-yl)-5,6-dihydro-4H-cyclopenta[b]thiophene-2-carboxamide] showed an EC50 of 150 nM.
For `CCCC(CCC)NC(=O)c1cc(OC)nc(OC)n1` [Example A122, N-(heptan-4-yl)-2,6-dimethoxypyrimidine-4-carboxamide], the EC50 was 220 nM.
Work on `CCCC(CCC)NC(=O)c1coc2ccccc12` [Example A123, N-(heptan-4-yl)benzofuran-3-carboxamide] yielded an EC50 of 510 nM.
In the case of `Cc1ccc(C(=O)NC2CCCCC2C)cc1C` (stereo not shown) [Example A124, 3,4-dimethyl-N-(2-methylcyclohexyl)benzamide], the EC50 is reported as 10 nM.
`COc1cccc(C(=O)NC2CCCCC2C)c1N` (stereo not shown) [Example A125, 2-amino-3-methoxy-N-(2-methylcyclohexyl)benzamide] was tested, and the EC50 was 20 nM.
`COc1ccc2c(c1)CCC2NC(=O)c1cccc(OC)c1N` (stereo not shown) [Example A126, 2-amino-3-methoxy-N-(5-methoxy-2,3-dihydro-1H-inden-1-yl)benzamide] showed an EC50 of 40 nM.
`CCCC(CCC)NC(=O)c1cccc(C)c1N` [Example A127, 2-amino-N-(heptan-4-yl)-3-methylbenzamide] was tested, and the EC50 was 140 nM.
`CCCC(CCC)NC(=O)c1ccc(-c2cnco2)cc1` [Example A128, N-(heptan-4-yl)-4-(oxazol-5-yl)benzamide] showed an EC50 of 400 nM.
Compound `COc1ccc(C(=O)NC2CCc3cccc(C)c32)cc1C` (stereo not shown) [Example A129, 4-methoxy-3-methyl-N-(7-methyl-2,3-dihydro-1H-inden-1-yl)benzamide] has an EC50 of 1030 nM.
`CCCC(CCC)NC(=O)c1cc2cccc(OC)c2o1` [Example A130, N-(heptan-4-yl)-7-methoxybenzofuran-2-carboxamide] showed an EC50 of 160 nM.

Same assay, conditions: Table B, Umami Oxalamides; read-out: Umami EC50
`COc1ccc(CNC(=O)C(=O)NCCc2ccco2)c(OC)c1` [Example B1, N1-(2,4-dimethoxybenzyi)-N2-(2-(furan-2-yl)ethyl)oxalamide] gave an EC50 of 180 nM.
`CCOc1ccc(CNC(=O)C(=O)NCCc2ccc(C)cn2)c(OC)c1` [Example B2, N1-(4-ethoxy-2-methoxybenzyl)-N2-(2-(5-methylpyndm-2-yl)ethyl)oxalamide] gave an EC50 of 190 nM.
With `Cc1c(CNC(=O)C(=O)NCCc2ccccn2)sc2ccccc12` [Example B3] the EC50 was 810 nM.
In the case of `CC(C)Oc1ccccc1CNC(=O)C(=O)NCCc1ccccn1` [Example B4, N1-(2-isopropoxybenzyl)-N2-(2-(pyridin-2-yl)ethyl)oxalamide], the EC50 is reported as 1220 nM.

Same assay, conditions: Table C, Umami Ureas; read-out: Umami EC50
In the case of `CCCC(CCC)NC(=O)Nc1ccccc1Cl` [Example C1, 1-(2-chlorophenyl)-3-(heptan-4-yl)urea], the EC50 is reported as 370 nM.
In the case of `CCC(NC(=O)Nc1ccc(Cl)cc1Cl)c1ccccc1` (stereo not shown) [Example C2, 1-(2,4-dichlorophenyl)-3-(1-phenylpropyl)urea], the EC50 is reported as 490 nM.
`CC1CCCCC1NC(=O)Nc1ccccc1Cl` (stereo not shown) [Example C3, 1-(2-chlorophenyl)-3-(2-methylcyclohexyl)urea] gave an EC50 of 520 nM.
`CCCC(CCC)NC(=O)Nc1ccccc1F` [Example C4, 1-(2-fluorophenyl)-3-(heptan-4-yl)urea] gave an EC50 of 790 nM.
Work on `CC(NC(=O)Nc1ccccc1Cl)C1CCCCC1` (stereo not shown) [Example C5, 1-(2-chlorophenyl)-3-(1-cyclohexylethyl)urea] yielded an EC50 of 840 nM.
`CC(C)c1ccc(NC(=O)NCCc2ccccn2)cc1` [Example C6, 1-(4-isopropylphenyl)-3-(2-(pyridin-2-yl)ethyl)urea] gave an EC50 of 980 nM.
With `O=C(Nc1ccccc1Cl)NC1CCCc2ccccc21` (stereo not shown) [Example C7, 1-(2-chlorophenyl)-3-(1,2,3,4-tetrahydronaphthalen-1-yl)urea] the EC50 was 990 nM.
`COc1ccc(NC(=O)NC2CCCCC2C)c(OC)c1` (stereo not shown) [Example C8, 1-(2,4-dimethoxyphenyl)-3-(2-methylcyclohexyl)urea] was tested, and the EC50 was 1410 nM.
`CCCC(CCC)NC(=O)Nc1ccccc1CC` [Example C9, 1-(2-ethylphenyl)-3-(heptan-4-yl)urea] showed an EC50 of 1420 nM.
`CCOc1ccc(NC(=O)NC2CCCCC2C)cc1` (stereo not shown) [Example C10, 1-(4-ethoxyphenyl)-3-(2-methylcyclohexyl)urea] was tested, and the EC50 was 1510 nM.
With `O=C(Nc1ccccc1F)NC1CCCc2ccccc21` (stereo not shown) [Example C11, 1-(2-fluorophenyl)-3-(1,2,3,4-tetrahydronaphthalen-1-yl)urea] the EC50 was 1650 nM.
In the case of `COc1ccccc1NC(=O)NC1CCCCC1C` (stereo not shown) [Example C12, 1-(2-methoxyphenyl)-3-(2-methylcyclohexyl)urea], the EC50 is reported as 1670 nM.
Compound `CCC(CC)NC(=O)Nc1ccc(OC)cc1OC` [Example C13, 1-(2,4-dimethoxyphenyl)-3-(pentan-3-yl)urea] has an EC50 of 1720 nM.
In the case of `CSc1ccccc1NC(=O)NC(C(C)C)C(C)C` [Example C14, 1-(2,4-dimethylpentan-3-yl)-3-(2-(methylthio)phenyl)urea], the EC50 is reported as 140 nM.
`CCCC(CCC)NC(=O)Nc1ccc(C)cc1OC` [Example C15, 1-(heptan-4-yl)-3-(2-methoxy-4-methylphenyl)urea] showed an EC50 of 160 nM.
`COc1cc(C)ccc1NC(=O)NC(C(C)C)C(C)C` [Example C16, 1-(2,4-dimethylpentan-3-yl)-3-(2-methoxy-4-methylphenyl)urea] gave an EC50 of 210 nM.
